Results reported in publication PMC10222279, “Detection of Acetaminophen in Groundwater by Laccase-Based Amperometric Biosensors Using MoS2 Modified Carbon Paper Electrodes” (Sensors (Basel, Switzerland), 2023).

Tested on: T1, TvL
T1 construct: gene LCC2
Settings: read-out: KMapp / Free; free enzyme; assay as for activity: 50 mM citric/phosphate buffer pH 4, 420 nm; unit not in table grid, µM
Description: ABTS oxidation kinetics, non-linear Michaelis-Menten fit on TvL

CCn1c(=NN=c2sc3cc(S(=O)(=O)O)ccc3n2CC)sc2cc(S(=O)(=O)O)ccc21 [ABTS, 2,2′-azino-bis(3-ethylbenzthiazoline-6-sulphonic acid)]
Km: 42.1 ± 3.14 µM
